pIC50: −log10 of the molar value.
target: T1, human NaPi-IIb (Homo sapiens, UniProt O95436); assay: Inhibitory effect on 33PO4 uptake into human NaPi-IIb-expressing CHO cells; format: cell-based; conditions: read-out: IC50
T1 construct: expressed in transfected cells
T1 sequence (O95436 1-690): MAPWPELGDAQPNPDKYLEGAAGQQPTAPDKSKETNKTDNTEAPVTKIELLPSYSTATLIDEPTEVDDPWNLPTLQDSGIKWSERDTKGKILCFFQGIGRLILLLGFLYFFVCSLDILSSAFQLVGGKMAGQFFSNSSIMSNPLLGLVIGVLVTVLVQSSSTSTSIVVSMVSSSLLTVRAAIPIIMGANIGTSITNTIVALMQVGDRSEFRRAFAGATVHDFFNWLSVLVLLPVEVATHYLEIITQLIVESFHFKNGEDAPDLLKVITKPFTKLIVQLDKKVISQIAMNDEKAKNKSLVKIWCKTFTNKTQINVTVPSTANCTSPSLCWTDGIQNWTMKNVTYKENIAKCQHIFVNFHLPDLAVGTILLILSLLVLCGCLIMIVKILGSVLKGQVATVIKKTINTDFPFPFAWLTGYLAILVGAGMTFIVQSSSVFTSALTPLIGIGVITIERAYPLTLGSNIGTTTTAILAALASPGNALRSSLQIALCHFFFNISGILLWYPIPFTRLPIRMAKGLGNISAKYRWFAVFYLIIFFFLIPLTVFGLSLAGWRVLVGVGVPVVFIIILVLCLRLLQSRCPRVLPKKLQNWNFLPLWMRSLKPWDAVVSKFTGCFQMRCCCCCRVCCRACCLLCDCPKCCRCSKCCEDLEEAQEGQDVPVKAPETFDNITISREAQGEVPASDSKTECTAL
Summary of the method: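 Uptake of ³³PO4 was measured by scintillation counting after ice-cold buffer A washes. Cells were CHO stably expressing human NaPi-IIb, seeded overnight, and exposed to ³³PO4 in buffer A at room temperature.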

Structure (SMILES) | pIC50
CN1N(Cc2ccc(OCCN3CCOCC3)c(F)c2F)C(=O)C(C(=O)Nc2ccc(C(F)(F)F)cc2-c2cc(C(F)(F)F)ncn2)=C(O)C12CCCCC2 [Example 295] | 4.77
Cc1c(-c2cc(C(F)(F)F)ccc2NC(=O)C2=C(O)C3(CCCCC3)N(C)N(Cc3ccc(OCCN4CCOCC4)c(F)c3F)C2=O)ncnc1C(F)(F)F [Example 296] | 5.00
CN1N(Cc2ccc(OCCN3CCOCC3)c(F)c2F)C(=O)C(C(=O)Nc2ccc(Cl)cc2-c2cc(C(F)(F)F)ncn2)=C(O)C12CCCCC2 [Example 297] | 4.74
CN1N(Cc2ccc(OCCN3CCOCC3)c(F)c2F)C(=O)C(C(=O)Nc2ccc(Br)c(C(F)(F)F)n2)=C(O)C12CCCCC2 [Example 298] | < 4.52
CC1(C)C(O)=C(C(=O)Nc2ccc(C(F)(F)F)cc2-c2cc(C(F)(F)F)ncn2)C(=O)N(Cc2cccc(F)c2F)N1c1ccccc1 [Example 299] | 4.73
CN1N(Cc2cccc(F)c2F)C(=O)C(C(=O)Nc2ccc(C(F)(F)F)cc2-c2cc(C(F)(F)F)ncn2)=C(O)C12CCC2 [Example 300] | 5.03
CN1N(Cc2cccc(F)c2F)C(=O)C(C(=O)Nc2ccc(C(F)(F)F)cc2-c2ccc(C(F)(F)F)nc2)=C(O)C12CCC2 [Example 301] | 5.59
COc1cc(-c2cc(C(F)(F)F)ccc2NC(=O)C2=C(O)C(C)(C)N(C)N(Cc3cccc(F)c3F)C2=O)cnc1C#N [Example 302] | 5.11
CN1N(Cc2cccc(F)c2F)C(=O)C(C(=O)Nc2ccc(C(F)(F)F)cc2-c2cc(C#N)ncn2)=C(O)C1(C)C [Example 303] | 4.80
CN1N(Cc2cccc(F)c2F)C(=O)C(C(=O)Nc2ccc(C(F)(F)F)nc2-c2ccc(C(F)(F)F)nc2)=C(O)C1(C)C [Example 304] | 5.46
CN1N(Cc2cccc(F)c2F)C(=O)C(C(=O)Nc2ccc(C(F)(F)F)cc2-c2cncc(C(F)(F)F)c2)=C(O)C1(C)C [Example 305] | 5.23
CN1N(Cc2cccc(F)c2F)C(=O)C(C(=O)Nc2ccc(C(F)(F)F)nc2-c2cncc(C(F)(F)F)c2)=C(O)C1(C)C [Example 306] | 5.08
CN1N(Cc2cccc(F)c2F)C(=O)C(C(=O)Nc2cc(C(F)(F)F)ccc2-c2ccc(C(F)(F)F)nc2)=C(O)C1(C)C [Example 307] | 5.34
CN1N(Cc2cccc(F)c2F)C(=O)C(C(=O)Nc2ccc(C(F)(F)F)cc2-c2ccc(S(=O)(=O)N(C)C)cc2)=C(O)C1(C)C [Example 308] | 4.90
CN1N(Cc2cccc(F)c2F)C(=O)C(C(=O)Nc2ccc(Cl)cc2-c2ccc(C(F)(F)F)nc2)=C(O)C1(C)C [Example 309] | 5.19
CSc1ccc(-c2cc(C(F)(F)F)ccc2NC(=O)C2=C(O)C(C)(C)N(C)N(Cc3cccc(F)c3F)C2=O)cn1 [Example 310] | 5.33
Cc1c(C#N)ncnc1-c1cc(C(F)(F)F)ccc1NC(=O)C1=C(O)C(C)(C)N(C)N(Cc2cccc(F)c2F)C1=O [Example 311] | 5.09
CN1N(Cc2cccc(F)c2F)C(=O)C(C(=O)Nc2ccc(C(F)(F)F)cc2-c2ncnc(C#N)c2Cl)=C(O)C1(C)C [Example 312] | 5.20
CN1N(Cc2ccc(OCCN3CCOCC3)c(F)c2F)C(=O)C(C(=O)Nc2ccc(C(F)(F)F)cc2-c2cc(C(F)(F)F)ncn2)=C(O)C1(C)C [Example 313, 2-[[2,3-Difluoro-4-(2-morpholin-4-ylethoxy)phenyl]methyl]-5-hydroxy-1,6,6-trimethyl-3-oxo-N-[4-(trifluoromethyl)-2-[6-(trifluoromethyl)pyrimidin-4-yl]phenyl]pyridazine-4-carboxamide] | 4.74

Structure (SMILES) | pIC50
CN1N(Cc2ccc(OCCN3CCOCC3)c(F)c2F)C(=O)C(C(=O)Nc2ccc(C(F)(F)F)cc2-c2ccc(C(F)(F)F)nc2)=C(O)C1(C)C [Example 314, 2-[[2,3-Difluoro-4-(2-morpholin-4-ylethoxy)phenyl]methyl]-5-hydroxy-1,6,6-trimethyl-3-oxo-N-[4-(trifluoromethyl)-2-[6-(trifluoromethyl)pyridin-3-yl]phenyl]pyridazine-4-carboxamide] | 4.93
CN1N(Cc2ccc(C#CCN3CCOCC3)c(F)c2F)C(=O)C(C(=O)Nc2ccc(C(F)(F)F)cc2-c2cc(C(F)(F)F)ncn2)=C(O)C1(C)C [Example 315] | 5.01
CN1N(Cc2ccc(C#CCN3CCOCC3)c(F)c2F)C(=O)C(C(=O)Nc2ccc(Cl)cc2-c2cc(C(F)(F)F)ncn2)=C(O)C1(C)C [Example 316] | 4.85
CN1N(Cc2ccc(OCCN3CCOCC3)c(F)c2F)C(=O)C(C(=O)Nc2ccc(C(F)(F)F)cc2-c2cc(C(F)(F)F)ncn2)=C(O)C12CCC2 [Example 317, 6-[[2,3-Difluoro-4-(2-morpholin-4-ylethoxy)phenyl]methyl]-9-hydroxy-5-methyl-7-oxo-N-[4-(trifluoromethyl)-2-[6-(trifluoromethyl)pyrimidin-4-yl]phenyl]-5,6-diazaspiro[3.5] non-8-ene-8-carboxamide] | 5.02
CN1N(Cc2ccc(OCCN3CCOCC3)c(F)c2F)C(=O)C(C(=O)Nc2ccc(C(F)(F)F)cc2-c2cc(C(F)(F)F)ncn2)=C(O)C12CCCC2 [Example 318, 7-[[2,3-Difluoro-4-(2-morpholin-4-ylethoxy)phenyl]methyl]-10-hydroxy-6-methyl-8-oxo-N-[4-(trifluoromethyl)-2-[6-(trifluoromethyl)pyrimidin-4-yl]phenyl]-6,7-diazaspiro[4.5]dec-9-ene-9-carboxamide] | 5.07
CN1N(Cc2ccc(OCCCC(=O)O)c(F)c2F)C(=O)C(C(=O)Nc2ccc(C(F)(F)F)cc2-c2cc(C(F)(F)F)ncn2)=C(O)C12CCCC2 [Example 332, 4-[2,3-Difluoro-4-[[10-hydroxy-6-methyl-8-oxo-9-[[4-(trifluoromethyl)-2-[6-(trifluoromethyl)pyrimidin-4-yl]phenyl]carbamoyl]-6,7-diazaspiro[4.5]dec-9-en-7-yl]methyl]phenoxy]butanoate] | 4.62
CN1N(Cc2ccc(OCCCCCC(=O)O)c(F)c2F)C(=O)C(C(=O)Nc2ccc(C(F)(F)F)cc2-c2cc(C(F)(F)F)ncn2)=C(O)C12CCCC2 [Example 334] | 4.99
CN1N(Cc2ccc(OCCCCCCC(=O)O)c(F)c2F)C(=O)C(C(=O)Nc2ccc(C(F)(F)F)cc2-c2cc(C(F)(F)F)ncn2)=C(O)C12CCCC2 [Example 335] | 5.06
CN1N(Cc2ccc(OCC(=O)N3CCOCC3)c(F)c2F)C(=O)C(C(=O)Nc2ccc(C(F)(F)F)cc2-c2cc(C(F)(F)F)ncn2)=C(O)C12CCC2 [Example 336, 8-[[2,3-Difluoro-4-(2-morpholin-2-oxo-ethoxy)phenyl]methyl]-5-hydroxy-9-methyl-7-oxo-N-[4-(trifluoromethyl)-2-[6-(trifluoromethyl)pyrimidin-4-yl]phenyl]-8,9-diazaspiro[3.5]non-5-ene-6-carboxamide] | 4.71
CN1N(Cc2ccc(OCCN3CCOC(=O)C3)c(F)c2F)C(=O)C(C(=O)Nc2ccc(C(F)(F)F)cc2-c2cc(C(F)(F)F)ncn2)=C(O)C12CCC2 [Example 337, 8-[[2,3-Difluoro-4-[2-(2-oxomorpholin-4-yl)ethoxy]phenyl]methyl]-5-hydroxy-9-methyl-7-oxo-N-[4-(trifluoromethyl)-2-[6-(trifluoromethyl)pyrimidin-4-yl]phenyl]-8,9-diazaspiro[3.5]non-5-ene-6-carboxamide] | 4.77
CN(CCOc1ccc(CN2C(=O)C(C(=O)Nc3ccc(C(F)(F)F)cc3-c3cc(C(F)(F)F)ncn3)=C(O)C3(CCC3)N2C)c(F)c1F)C1CCOC1 (stereo not shown) [Example 338, 6-[[2,3-Difluoro-4-[2-[methyl(oxolan-3-yl)amino]ethoxy]phenyl]methyl]-9-hydroxy-5-methyl-7-oxo-N-[4-(trifluoromethyl)-2-[6-(trifluoromethyl)pyrimidin-4-yl]phenyl]-5,6-diazaspiro[3.5]non-8-ene-8-carboxamide] | 4.87
CN1N(Cc2ccc(OCCN3[C@@H]4COC[C@H]3C4)c(F)c2F)C(=O)C(C(=O)Nc2ccc(C(F)(F)F)cc2-c2cc(C(F)(F)F)ncn2)=C(O)C12CCC2 [Example 339] | 4.72
CN1N(Cc2ccc(OCCN3C4CCC3COC4)c(F)c2F)C(=O)C(C(=O)Nc2ccc(C(F)(F)F)cc2-c2cc(C(F)(F)F)ncn2)=C(O)C12CCC2 [Example 340] | 5.00
CN1N(Cc2ccc(OCCN3CCOCC3(C)C)c(F)c2F)C(=O)C(C(=O)Nc2ccc(C(F)(F)F)cc2-c2cc(C(F)(F)F)ncn2)=C(O)C12CCC2 [Example 341] | 5.12
CN1N(Cc2ccc(OCCN3CCOC(C)(C)C3)c(F)c2F)C(=O)C(C(=O)Nc2ccc(C(F)(F)F)cc2-c2cc(C(F)(F)F)ncn2)=C(O)C12CCC2 [Example 342] | 5.06
C[C@H]1COC[C@H](C)N1CCOc1ccc(CN2C(=O)C(C(=O)Nc3ccc(C(F)(F)F)cc3-c3cc(C(F)(F)F)ncn3)=C(O)C3(CCC3)N2C)c(F)c1F [Example 343] | 4.68
C[C@@H]1COC[C@H](C)N1CCOc1ccc(CN2C(=O)C(C(=O)Nc3ccc(C(F)(F)F)cc3-c3cc(C(F)(F)F)ncn3)=C(O)C3(CCC3)N2C)c(F)c1F [Example 344] | 4.86
COC(=O)CN(C)CCOc1ccc(CN2C(=O)C(C(=O)Nc3ccc(C(F)(F)F)cc3-c3cc(C(F)(F)F)ncn3)=C(O)C3(CCC3)N2C)c(F)c1F [Example 346] | 5.16
